Assay results: patent publication US20230346777A1, “USE OF SGC ACTIVATORS FOR THE TREATMENT OF OPHTHALMOLOGIC DISEASES” (Bayer Aktiengesellschaft, priority 2020, published 2023)
Counter-ions that a name gives are not always drawn.

Tests used:
[1] = biological target: T1, recombinant guanylate cyclase reporter cell line (Rattus norvegicus, UniProt P20595); experiment: Effect on a recombinant guanylate cyclase reporter cell line; format: cell-based
T1 construct: expressed in transfected cells; CHO by own knowledge of the cited Wunder et al. 2005
T1 sequence (P20595 1-619): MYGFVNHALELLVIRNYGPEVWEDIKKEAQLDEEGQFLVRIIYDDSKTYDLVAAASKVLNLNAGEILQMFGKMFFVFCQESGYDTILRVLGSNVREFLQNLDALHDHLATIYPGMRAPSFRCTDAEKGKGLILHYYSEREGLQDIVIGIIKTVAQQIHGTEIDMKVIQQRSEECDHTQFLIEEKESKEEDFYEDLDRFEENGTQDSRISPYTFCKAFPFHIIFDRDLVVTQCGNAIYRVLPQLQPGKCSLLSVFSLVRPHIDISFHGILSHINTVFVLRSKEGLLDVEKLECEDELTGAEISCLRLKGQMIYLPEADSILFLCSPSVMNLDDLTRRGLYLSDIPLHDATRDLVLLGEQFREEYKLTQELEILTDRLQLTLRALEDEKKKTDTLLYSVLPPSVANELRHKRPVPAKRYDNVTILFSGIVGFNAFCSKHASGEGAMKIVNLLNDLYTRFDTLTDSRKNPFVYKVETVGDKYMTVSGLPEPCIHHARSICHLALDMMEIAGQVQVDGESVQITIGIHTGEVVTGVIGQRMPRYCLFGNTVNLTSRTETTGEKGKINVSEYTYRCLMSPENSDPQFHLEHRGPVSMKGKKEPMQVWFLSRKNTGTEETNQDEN
T1 sequence (P19686 1-690 partner): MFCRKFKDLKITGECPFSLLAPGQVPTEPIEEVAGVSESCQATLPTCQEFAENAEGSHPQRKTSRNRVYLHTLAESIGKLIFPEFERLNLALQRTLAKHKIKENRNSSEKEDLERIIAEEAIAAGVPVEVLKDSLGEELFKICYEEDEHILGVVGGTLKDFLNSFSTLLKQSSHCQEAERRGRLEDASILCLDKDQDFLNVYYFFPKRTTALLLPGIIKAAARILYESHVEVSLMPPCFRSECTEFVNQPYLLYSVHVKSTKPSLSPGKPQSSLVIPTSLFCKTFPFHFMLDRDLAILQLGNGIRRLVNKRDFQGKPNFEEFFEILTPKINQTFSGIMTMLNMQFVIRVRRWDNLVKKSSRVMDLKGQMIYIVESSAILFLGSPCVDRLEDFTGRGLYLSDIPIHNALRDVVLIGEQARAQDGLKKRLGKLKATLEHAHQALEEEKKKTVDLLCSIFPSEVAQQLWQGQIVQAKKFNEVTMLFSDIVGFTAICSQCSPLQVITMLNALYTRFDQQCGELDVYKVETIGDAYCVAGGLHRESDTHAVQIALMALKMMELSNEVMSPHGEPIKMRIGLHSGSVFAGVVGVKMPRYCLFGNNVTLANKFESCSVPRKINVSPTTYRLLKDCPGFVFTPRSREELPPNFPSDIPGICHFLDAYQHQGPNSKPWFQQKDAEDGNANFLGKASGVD
Protocol: B-1. Effect on a Recombinant Guanylate Cyclase Reporter Cell Line
The cellular activity of the compounds according to the invention was determined using a recombinant guanylate cyclase reporter cell line, as described in F. Wunder et al., Anal. Biochem. 339, 104-112 (2005).

[2] = Pharmacokinetic parameters following intravenous and oral administration in rats; format: in vivo, male Wistar rats; settings: for clearance: read-out: CLplasma (converted); for half-life: read-out: t½ (converted)
Protocol: (§1) B-2. Determination of Pharmacokinetic Parameters Following Intravenous and Oral Administration
(§2) The pharmacokinetic parameters of the compounds according to the invention were determined in male Wistar rats and/or in female beagles and/or in cynomolgus monkeys and/or in male CD-1 mice. Intravenous administration in the case of mice and rats was carried out by means of a species-specific plasma/DMSO formulation, and in the case of dogs and monkeys by means of a water/PEG400/ethanol formulation. In all species, oral administration of the dissolved substance was performed via gavage, based on a water/PEG400/ethanol formulation.
(§3) An internal standard (which may also be a chemically unrelated substance) was added to the samples of the compounds of the invention, calibration samples and qualifiers, and there followed protein precipitation by means of acetonitrile in excess. Addition of a buffer solution matched to the LC conditions, and subsequent vortexing, was followed by centrifugation at 1000 g. The supernatant was analysed by LC-MS/MS using C18 reversed-phase columns and variable mobile phase mixtures. The substances were quantified via the peak heights or areas from extracted ion chromatograms of specific selected ion monitoring experiments.
(§4) The plasma concentration/time plots determined were used to calculate the pharmacokinetic parameters such as AUC, Cmax, t1/2 (terminal half-life), F (bioavailability), MRT (mean residence time) and CL (clearance), by means of a validated pharmacokinetic calculation program.
(§5) Since the substance quantification was performed in plasma, it was necessary to determine the blood/plasma distribution of the substance in order to be able to adjust the pharmacokinetic parameters correspondingly.
(§6) For this purpose, a defined amount of substance was incubated in K3 EDTA whole blood of the species in question in a rocking roller mixer for 20 min. After centrifugation at 1000 g, the plasma concentration was measured (by means of LC-MS/MS; see above) and determined by calculating the ratio of the Cblood/Cplasma value.

[3] = Pharmacokinetic parameters following intravenous and oral administration in dogs; format: in vivo, female beagles; settings: for half-life: read-out: t½ (converted)
Protocol: as §1, §2, §3, §4, §5, §6

[4] = male, Wistar, rat, plasma, iv, intravenous administration
[5] = male, Wistar, rat, plasma, iv, intravenous administration, read-out: MRT
[6] = male, Wistar, rat, plasma, po, oral administration (p.o.), read-out: MRT
[7] = male, Wistar, rat, plasma, po, oral administration (p.o.)
[8] = female, beagle, dog, plasma, intravenous administration (i.v.)
[9] = female, beagle, dog, plasma, oral administration (p.o.)

Compound	EC50 [1]	MEC (minimum effective concentration) [1]	AUCnorm ([2]; intravenous administration)	clearance [2, 4]	MRT [2, 5]	half-life [2, 4]	MRT [2, 6]	half-life [2, 7]	AUCnorm ([2]; oral administration (p.o.))	F ([2]; oral administration (p.o.))	further results
CC(C)CN1CCN(c2ccc(-c3ccc(Cl)cc3N3CCCC(n4ncc(C(=O)O)c4C(F)F)C3)cc2)CC1 (single isomer, unassigned) [Example 1, 1-[1-{4-Chloro-4′-[4-(2-methylpropyl)piperazin-1-yl][1,1′-biphenyl]-2-yl}piperidin-3-yl]-5-(difluoromethyl)-1H-pyrazole-4-carboxylic acid hydrochloride]	9.2 nM	2.3 nM	1.77 kg·h/L	9.33 mL/min/kg	2.24 h	1.64 h	6.28 h	3.24 h	0.57 kg·h/L	31.4%	–
CCCN1CCN(c2ccc(-c3ccc(Cl)cc3N3CCCC(n4ncc(C(=O)O)c4C(F)F)C3)cc2)CC1 (single isomer, unassigned) [Example 4, 1-{1-[4-Chloro-4′-(4-propylpiperazin-1-yl)[biphenyl]-2-yl]piperidin-3-yl}-5-(difluoromethyl)-1H-pyrazole-4-carboxylic acid hydrochloride]	3.2 nM	0.3 nM	1.40 kg·h/L	12 mL/min/kg	2.62 h	2.09 h	5.91 h	3.02 h	0.84 kg·h/L	59.9%	–
O=C(O)c1cnn(C2CCCN(c3cc(Cl)ccc3-c3ccc(N4CCN(CC5CC5)CC4)cc3)C2)c1C(F)F (single isomer, unassigned) [Example 5, 1-(1-{4-Chloro-4′-[4-(cyclopropylmethyl)piperazin-1-yl][biphenyl]-2-yl}piperidin-3-yl)-5-(difluoromethyl)-1H-pyrazole-4-carboxylic acid hydrochloride]	3.6 nM	<0.3 nM	1.23 kg·h/L	13.5 mL/min/kg	2.88 h	2.43 h	7.53 h	3.76 h	0.70 kg·h/L	58.2%	–
O=C(O)c1cnn(C2CCCN(c3cc(Cl)ccc3-c3ccc(N4CCN(CC(F)(F)F)CC4)cc3)C2)c1C(F)F (single isomer, unassigned) [Example 6, 1-[1-[5-Chloro-2-[4-[4-(2,2,2-trifluoroethyl)piperazin-1-yl]phenyl]phenyl]-3-piperidyl]-5-(difluoromethyl)pyrazole-4-carboxylic acid]	19.3 nM	1.6 nM	2.29 kg·h/L	–	–	–	–	–	2.11 kg·h/L	91.7%	CLplasma ([2]; intravenous administration): 7.33 mL/min/kg; MRT ([2]; intravenous administration): 4.16 h; t½ ([2]; intravenous administration): 5.13 h; MRT ([2]; oral administration (p.o.)): 14.2 h; t½ ([2]; oral administration (p.o.)): 7.37 h
O=C(O)c1cnn(C2CCCN(c3cc(Cl)ccc3-c3ccc(N4CCN(CC(F)(F)F)CC4)cc3)C2)c1C(F)F (single isomer, unassigned) [Example 7, 1-[1-[5-Chloro-2-[4-[4-(2,2,2-trifluoroethyl)piperazin-1-yl]phenyl]phenyl]-3-piperidyl]-5-(difluoromethyl)pyrazole-4-carboxylic acid]	13.7 nM	1.6 nM	7.23 kg·h/L	–	4.41 h	3.83 h	7.32 h	–	4.04 kg·h/L	56.1%	CLplasma ([2]; intravenous administration): 2.33 mL/min/kg; t½ ([2]; oral administration (p.o.)): 3.63 h
CC(C)CN1CCN(c2ccc(-c3ccc(Cl)cc3N3CCCC(n4ncc(C(=O)O)c4C(F)(F)F)C3)cc2)CC1 (single isomer, unassigned) [Example 8, 1-[1-{4-Chloro-4′-[4-(2-methylpropyl)piperazin-1-yl][1,1′-biphenyl]-2-yl}piperidin-3-yl]-5-(trifluoromethyl)-1H-pyrazole-4-carboxylic acid]	40 nM	6.5 nM	–	–	–	–	–	–	–	–	–
O=C(O)c1cnn(C2CCCN(c3cc(Cl)ccc3-c3ccc(N4CCN(CC5CC5)CC4)cc3)C2)c1C(F)(F)F (single isomer, unassigned) [Example 10, 1-[1-[5-Chloro-2-[4-[4-(cyclopropylmethyl)piperazin-1-yl]phenyl]phenyl]-3-piperidyl]-5-(trifluoromethyl)pyrazole-4-carboxylic acid hydrochloride]	10.3 nM	2.0 nM	1.37 kg·h/L	12.2 mL/min/kg	2.39 h	1.89 h	4.04 h	3.41 h	0.52 kg·h/L	37.4%	–
O=C(O)c1cnn(C2CCCN(c3cc(Cl)ccc3-c3ccc(N4CCN(CC(F)(F)F)CC4)cc3)C2)c1C(F)(F)F (single isomer, unassigned) [Example 11, 1-[1-[5-Chloro-2-[4-[4-(2,2,2-trifluoroethyl)piperazin-1-yl]phenyl]phenyl]-3-piperidyl]-5-(trifluoromethyl)pyrazole-4-carboxylic acid]	5.2 nM	0.6 nM	–	–	–	–	–	–	–	–	–
O=C(O)c1cnn(-c2cccc(-c3cc(Cl)ccc3-c3ccc(N4CCN(CC5CC5)CC4)cc3)n2)c1C(F)(F)F [Comparative Example 174 (WO2012/058132), reference compound]	–	–	0.77 kg·h/L	21.7 mL/min/kg	2.78 h	2.33 h	8.4 h	3.6 h	0.63 kg·h/L	81.8%	MRT [3, 8]: 7.23 h; clearance ([3]; female, beagle, dog, plasma, intravenous administration (i.v.), read-out: CLplasma (converted)): 3.33 mL/min/kg; half-life [3, 8]: 10.8 h; MRT [3, 9]: 6.1 h; half-life [3, 9]: 7.05 h; AUCnorm ([3]; intravenous administration (i.v.)): 5.00 kg·h/L; AUCnorm ([3]; oral administration (p.o.)): 2.08 kg·h/L; F ([3]; oral administration (p.o.)): 41.6%
